Assay results taken from ChEMBL document CHEMBL5380795, “Design, Synthesis, and Bioactivity Investigation of Cyclic Lipopeptide Antibiotics Containing Eight to Nine Amino Acids” (J Med Chem, 2023).
Converted amounts (≈) assume the structure as drawn.

Experiments:
Staphylococcus aureus [1] = assay: Antibacterial activity against methicillin resistant Staphylococcus aureus ATCC 33591 assessed as inhibition of bacterial growth incubated for 18 to 24 hrs by broth microdilution method; type: functional; details: time 18-24 hrs
Staphylococcus aureus [2] = assay: Antibacterial activity against Staphylococcus aureus ATCC 29213 assessed as inhibition of bacterial growth incubated for 18 to 24 hrs by broth microdilution method; type: functional; details: time 18-24 hrs
[3] = tested on: Staphylococcus epidermidis; assay: Antibacterial activity against methicillin resistant Staphylococcus epidermidis clinical isolate 19-5 assessed as inhibition of bacterial growth incubated for 18 to 24 hrs by broth microdilution method; type: functional; details: time 18-24 hrs
[4] = tested on: Staphylococcus epidermidis; assay: Antibacterial activity against methicillin resistant Staphylococcus epidermidis clinical isolate 19-6 assessed as inhibition of bacterial growth incubated for 18 to 24 hrs by broth microdilution method; type: functional; details: time 18-24 hrs
Escherichia coli [5] = assay: Antibacterial activity against Escherichia coli ATCC BAA-2523 assessed as inhibition of bacterial growth incubated for 18 to 24 hrs by broth microdilution method; type: functional; details: time 18-24 hrs
Escherichia coli [6] = assay: Antibacterial activity against Escherichia coli NCTC 13353 assessed as inhibition of bacterial growth incubated for 18 to 24 hrs by broth microdilution method; type: functional; details: time 18-24 hrs
Escherichia coli [7] = assay: Antibacterial activity against Escherichia coli clinical isolate 19-2 assessed as inhibition of bacterial growth incubated for 18 to 24 hrs by broth microdilution method; type: functional; details: time 18-24 hrs
Escherichia coli [8] = assay: Antibacterial activity against KPC producing Escherichia coli ATCC BAA-2340 assessed as inhibition of bacterial growth incubated for 18 to 24 hrs by broth microdilution method; type: functional; details: time 18-24 hrs
Klebsiella pneumoniae [9] = assay: Antibacterial activity against carbapenem resistant Klebsiella pneumoniae clinical isolate 19-15 assessed as inhibition of bacterial growth incubated for 18 to 24 hrs by broth microdilution method; type: functional; details: time 18-24 hrs
Klebsiella pneumoniae [10] = assay: Antibacterial activity against carbapenem resistant Klebsiella pneumoniae clinical isolate 19-17 assessed as inhibition of bacterial growth incubated for 18 to 24 hrs by broth microdilution method; type: functional; details: time 18-24 hrs
Klebsiella pneumoniae [11] = assay: Antibacterial activity against KPC producing Klebsiella pneumoniae ATCC BAA-1705 assessed as inhibition of bacterial growth incubated for 18 to 24 hrs by broth microdilution method; type: functional; details: time 18-24 hrs
Pseudomonas aeruginosa [12] = assay: Antibacterial activity against Pseudomonas aeruginosa clinical isolate 19-1 assessed as inhibition of bacterial growth incubated for 18 to 24 hrs by broth microdilution method; type: functional; details: time 18-24 hrs
Pseudomonas aeruginosa [13] = assay: Antibacterial activity against carbapenem resistant Pseudomonas aeruginosa clinical isolate 19-3 assessed as inhibition of bacterial growth incubated for 18 to 24 hrs by broth microdilution method; type: functional; details: time 18-24 hrs
Pseudomonas aeruginosa [14] = assay: Antibacterial activity against carbapenem resistant Pseudomonas aeruginosa clinical isolate 17-1 assessed as inhibition of bacterial growth incubated for 18 to 24 hrs by broth microdilution method; type: functional; details: time 18-24 hrs
Pseudomonas aeruginosa [15] = assay: Antibacterial activity against Pseudomonas aeruginosa ATCC 27853 assessed as inhibition of bacterial growth incubated for 18 to 24 hrs by broth microdilution method; type: functional; details: time 18-24 hrs
Acinetobacter baumannii [16] = assay: Antibacterial activity against carbapenem resistant Acinetobacter baumannii clinical isolate 19-8 assessed as inhibition of bacterial growth incubated for 18 to 24 hrs by broth microdilution method; type: functional; details: time 18-24 hrs
Acinetobacter baumannii [17] = assay: Antibacterial activity against oxacillinase-27 producing Acinetobacter baumannii NCTC 13304 assessed as inhibition of bacterial growth incubated for 18 to 24 hrs by broth microdilution method; type: functional; details: time 18-24 hrs
[18] = Cytotoxicity against human HK-2 cells assessed as inhibition of cell growth incubated for 72 hrs by CCK-8 assay; type: toxicity, cell-based
[19] = Selectivity index, ratio of IC50 for cytotoxicity against human HK-2 cells to MIC for antibacterial activity against Escherichia coli ATCC BAA-2523; type: toxicity, cell-based

| SMILES | MIC (Staphylococcus aureus [1]) [µg/mL] | MIC (Staphylococcus aureus [2]) [µg/mL] | MIC [3] [µg/mL] | MIC [4] [µg/mL] | MIC (Escherichia coli [5]) [µg/mL] | MIC (Escherichia coli [6]) [µg/mL] | MIC (Escherichia coli [7]) [µg/mL] | MIC (Escherichia coli [8]) [µg/mL] | MIC (Klebsiella pneumoniae [9]) [µg/mL] | MIC (Klebsiella pneumoniae [10]) [µg/mL] | MIC (Klebsiella pneumoniae [11]) [µg/mL] | MIC (Pseudomonas aeruginosa [12]) [µg/mL] | MIC (Pseudomonas aeruginosa [13]) [µg/mL] | MIC (Pseudomonas aeruginosa [14]) [µg/mL] | MIC (Pseudomonas aeruginosa [15]) [µg/mL] | MIC (Acinetobacter baumannii [16]) [µg/mL] | MIC (Acinetobacter baumannii [17]) [µg/mL] | IC50 at 72 h [18] [µg/mL] | selectivity ratio [19] |
| --- | --- | --- | --- | --- | --- | --- | --- | --- | --- | --- | --- | --- | --- | --- | --- | --- | --- | --- | --- |
| CCCCCCC[C@@H](O)CC(=O)N[C@H](CCN)C(=O)N[C@H]1CCNC(=O)[C@H]([C@@H](C)O)NC(=O)[C@H](CCN)NC(=O)[C@H](CCN)NC(=O)[C@H]([C@@H](C)O)NC(=O)[C@@H](CC(C)C)NC(=O)[C@H](CCN)NC1=O | > 64 | > 64 | > 64 | > 64 | 2 (≈ 2.03 µM) | 16 (≈ 16.2 µM) | 16 (≈ 16.2 µM) | 4 (≈ 4.06 µM) | 16 (≈ 16.2 µM) | 64 (≈ 64.9 µM) | 4 (≈ 4.06 µM) | 0.5 (≈ 0.507 µM) | 0.5 (≈ 0.507 µM) | 0.5 (≈ 0.507 µM) | 0.25 (≈ 0.253 µM) | > 64 | > 64 | 411 (≈ 417 µM) | 205 |
| CC(C)C[C@@H]1NC(=O)[C@@H](CC(C)C)NC(=O)[C@H](CCN)NC(=O)[C@@H](NC(=O)[C@@H](CCN)NC(=O)CCCCCC(C)(C)C)CCNC(=O)[C@H]([C@@H](C)O)NC(=O)[C@H](CCN)NC(=O)[C@H](CCN)NC1=O | > 64 | > 64 | 8 (≈ 8.14 µM) | > 64 | 32 (≈ 32.6 µM) | 32 (≈ 32.6 µM) | 32 (≈ 32.6 µM) | 16 (≈ 16.3 µM) | 64 (≈ 65.2 µM) | > 64 | 32 (≈ 32.6 µM) | 2 (≈ 2.04 µM) | 8 (≈ 8.14 µM) | 8 (≈ 8.14 µM) | 2 (≈ 2.04 µM) | > 64 | > 64 | 40.4 (≈ 41.1 µM) | 1.3 |
| CC(C)C[C@@H]1NC(=O)[C@@H](CC(C)C)NC(=O)[C@H](CCN)NC(=O)[C@@H](NC(=O)[C@@H](CCN)NC(=O)CCCCCc2ccccc2)CCNC(=O)[C@H]([C@@H](C)O)NC(=O)[C@H](CCN)NC(=O)[C@H](CCN)NC1=O | > 64 | > 64 | 8 (≈ 7.98 µM) | 64 (≈ 63.9 µM) | 16 (≈ 16 µM) | 32 (≈ 31.9 µM) | 16 (≈ 16 µM) | 8 (≈ 7.98 µM) | > 64 | > 64 | 8 (≈ 7.98 µM) | 2 (≈ 2 µM) | 4 (≈ 3.99 µM) | 4 (≈ 3.99 µM) | 1 (≈ 0.998 µM) | > 64 | > 64 | 309 (≈ 309 µM) | 19.3 |
| CCCCCCCCCC(=O)N[C@H](CCN)C(=O)N[C@H]1CCNC(=O)[C@H](CC(=O)O)NC(=O)[C@H](CCN)NC(=O)[C@H](CCN)NC(=O)[C@H](CC(C)C)NC(=O)[C@@H](CC(C)C)NC(=O)[C@H](CCN)NC1=O | > 64 | > 64 | > 64 | > 64 | > 64 | > 64 | > 64 | > 64 | > 64 | > 64 | > 64 | > 64 | > 64 | > 64 | > 64 | > 64 | > 64 | 347 (≈ 349 µM) | < 5.4 |
| CCCCCCCCCC(=O)N[C@H](CCN)C(=O)N[C@H]1CCNC(=O)[C@H]([C@@H](C)O)NC(=O)[C@H](CCN)NC(=O)[C@H](CCN)NC(=O)[C@H](CC(C)C)NC(=O)[C@@H](Cc2ccc(Cl)c(Cl)c2)NC(=O)[C@H](CCN)NC1=O | 32 (≈ 29.5 µM) | 16 (≈ 14.7 µM) | 4 (≈ 3.69 µM) | 4 (≈ 3.69 µM) | 2 (≈ 1.84 µM) | 4 (≈ 3.69 µM) | 2 (≈ 1.84 µM) | 2 (≈ 1.84 µM) | 4 (≈ 3.69 µM) | 4 (≈ 3.69 µM) | 4 (≈ 3.69 µM) | 4 (≈ 3.69 µM) | 4 (≈ 3.69 µM) | 16 (≈ 14.7 µM) | 16 (≈ 14.7 µM) | 16 (≈ 14.7 µM) | 16 (≈ 14.7 µM) | 28.5 (≈ 26.3 µM) | 14.3 |
| CCCCCCCCCC(=O)N[C@H](CCN)C(=O)N[C@H]1CCNC(=O)[C@H]([C@@H](C)O)NC(=O)[C@H](CCN)NC(=O)[C@H](CCN)NC(=O)[C@H](CC(C)C)NC(=O)[C@@H](Cc2ccc(Cl)cc2)NC(=O)[C@H](CCN)NC1=O | 16 (≈ 15.2 µM) | 8 (≈ 7.61 µM) | 0.5 (≈ 0.476 µM) | 4 (≈ 3.81 µM) | 1 (≈ 0.952 µM) | 2 (≈ 1.9 µM) | 1 (≈ 0.952 µM) | 1 (≈ 0.952 µM) | 2 (≈ 1.9 µM) | 2 (≈ 1.9 µM) | 0.5 (≈ 0.476 µM) | 0.5 (≈ 0.476 µM) | 0.5 (≈ 0.476 µM) | 1 (≈ 0.952 µM) | 0.5 (≈ 0.476 µM) | 32 (≈ 30.5 µM) | 8 (≈ 7.61 µM) | 48.1 (≈ 45.8 µM) | 48.1 |
